{"source": "patent US5480906A", "about": "“Stereochemical Wortmannin derivatives” (priority 1994, dated 1996)", "data": [{"tested_on": "purified bovine brain PI 3-kinase", "assay": "Assay of purified PI-3 kinase activity (32P incorporation into phosphatidylinositol, TLC/scintillation)", "type": "biochemical", "conditions": "at 10 ng/ml", "method": "(§1) In another, preferred, method, PI 3-kinase was prepared from bovine brain. Two bovine brains (wet weight about 900 g) were obtained from a local slaughterhouse within minutes of slaughter, packed on ice, and homogenized within one hour. Brains were trimmed of excess fat and blood vessels and then homogenized using a Tekmar Tissuemizer (Cincinnati, Ohio) at 4° C. in 20 mM of Tris(pH 8.3) containing 250 mM of sucrose, 6 mM of β-mercaptoethanol, 1 μg/ml of leupeptin, 1 μg/ml of pepstatin A, 0.4 mM of PMSF, and 1 mM of MgCl2.\n(§2) Following centrifugation for 60 minutes at 10,000 x g, the pH of the supernatant (about 1200 mL) was lowered to 5.75 using dropwise addition of 1M acetic acid at 4° C. After stirring for an additional 15 minutes at 4° C., the solution was centrifuged for 60 minutes at 13,500 x g. The supernatant was discarded. Pellets were resuspended in Buffer A (20 mM of Tris, pH 8.3, containing 6 mM of β-mercaptoethanol, 0.1 mM of ethylene glycol-bis(β-aminoethyl ether) N,N,N',N'-tetraacetic acid (EGTA), 1 μg/mL of leupeptin, 1 μg/mL of pepstatin A, and 1 mM of MgCl2), and loaded onto a Fast Flow Q Sepharose column (300 ml) at a flow rate of 5 mL/min at 4° C. After loading, the column was washed with 3 volumes of Buffer A containing 0.1M of KCl and the kinase was then eluted with a linear gradient of Buffer A/0.1M KCl to Buffer A/0.6M KCl at 3 mL/min over 7 volumes.\n(§3) Fractions were assayed for PI 3-kinase activity using 10 μL of the fraction and phosphatidylinositol as substrate as described below. PI 4-kinase eluted in the breakthrough; PI 3-kinase eluted at approximately 0.3M of KCl. The PI 3-kinase pool was subjected to a 40% ammonium sulfate precipitation. Following centrifugation (60 minutes at 13,500 x g), pellets were resuspended in Buffer B (10 mM of potassium phosphate, pH 7.4, containing 6 mM of β-mercaptoethanol, 1 μg/mL of leupeptin, 1 μg/mL of pepstatin A, and 1 mM of MgCl2), and loaded onto a 50 mL hydroxylapatite column (Calbiochem, Inc., La Jolla, Calif.) at 2.5 mL/minute. The column was washed with 150 mL Buffer B until the A280 baseline reached zero, and the kinase was then eluted with a linear gradient of 10-320 mM of KH2 PO4 at 1 mL/minute over 450 minutes.\n(§4) Active fractions were pooled and then loaded at 3 mL/minute onto a MonoS column (8 ml) (Pharmacia, Inc., Piscataway, N.J.) equilibrated in Buffer C (50 mM of MES, pH 6.2, containing 6 mM of β-mercaptoethanol, 0.1 mM of EGTA, 1 μg/mL of leupeptin, 1 μg/mL of pepstatin A, and 1 mM of MgCl2). PI 3-kinase was eluted with a linear gradient of 0-0.4M KCl in Buffer C over 120 minutes. In assaying fractions, two pools of PI 3-kinase activity were routinely found. The bulk of the activity was found in the flow-through, while about 20% of the activity was eluted in the gradient. Although the material in the gradient had considerable PI 4-kinase activity, essentially no PI 4-kinase activity was associated with the PI 3-kinase eluted in the flow-through. Therefore, the MonoS flow-through was concentrated by tangential flow filtration on a Mini-Ultrasette Omega 50 K membrane (Filtron, Inc., Northborough, Mass.) and diluted in Buffer C to lower the conductivity. The material was then reloaded onto the MonoS column using the above conditions. The PI 3-kinase bound to the column during the wash and was eluted in the gradient. Two pools of phosphatidylinositol kinase activity were obtained in the gradient; each was assayed for PI 3-kinase and PI 4-kinase activity.\n(§5) Pool I from the MonoS column was diluted with Buffer A and chromatographed on MonoQ (1 ml) and eluted with a gradient of 0-0.4M KCl in Buffer A. The final pool was assayed for PI 3-kinase and PI 4-kinase activity.\n(§6) PI 3-kinase activity was measured as previously described by Matter, W. F., et al., Biochemical and Biophysical Research Communications, 186: 624-631 (1992). […]", "units": {"inhibition vs. PI-3-kinase": "%"}, "values": [{"smiles": "COC[C@H]1OC(=O)c2coc3c2[C@@]1(C)C1=C(C3=O)[C@@H]2CCC(=O)[C@@]2(C)C[C@H]1O", "note": "[f, 11-desacetyl wortmannin]", "inhibition vs. PI-3-kinase": 50}]}, {"biological_target": "purified bovine brain PI 3-kinase", "assay": "Assay of purified PI-3 kinase activity (32P incorporation into phosphatidylinositol, TLC/scintillation)", "type": "biochemical", "conditions": "purified bovine brain PI 3-kinase, 10 min preincubation, 20 μM ATP, 3% DMSO", "method": "as §1, §2, §3, §4, §5, §6", "units": {"IC50 for inhibition of PI-3-kinase": "ng/mL"}, "values": [{"smiles": "CCN(C=C1C(=O)O[C@H](COC)[C@@]2(C)C1=C(O)C(=O)C1=C2[C@H](O)C[C@]2(C)C(=O)CC[C@@H]12)CC", "note": "[b]", "IC50 for inhibition of PI-3-kinase": "> 10"}, {"smiles": "COC[C@H]1OC(=O)c2coc3c2[C@@]1(C)C1=C(C3=O)[C@@H]2CCC(=O)[C@@]2(C)CC1=O", "note": "[c, 11-dehydro Wortmannin]", "IC50 for inhibition of PI-3-kinase": 1.6}, {"smiles": "COC[C@H]1OC(=O)c2coc3c2[C@@]1(C)C1=C(C3=O)[C@@H]2CCC(O)[C@@]2(C)C[C@H]1O", "note": "(stereo partly shown) [d, 11,17-desacetyl-dihydro Wortmannin]", "IC50 for inhibition of PI-3-kinase": "> 10"}, {"smiles": "CCC(=O)O[C@@H]1C[C@]2(C)[C@@H](O)CC[C@H]2C2=C1[C@]1(C)c3c(coc3C2=O)C(=O)O[C@@H]1COC", "note": "[e, 11-propionyl-17-hydroxy-desacetyl-dihydro-Wortmannin]", "IC50 for inhibition of PI-3-kinase": 0.38}, {"smiles": "COC[C@H]1OC(=O)c2coc3c2[C@@]1(C)C1=C(C3=O)[C@@H]2CCC(=O)[C@@]2(C)C[C@H]1O", "note": "[f, 11-desacetyl wortmannin]", "IC50 for inhibition of PI-3-kinase": 10}, {"smiles": "CCC(=O)O[C@@H]1C[C@]2(C)C(=O)CC[C@H]2C2=C1[C@]1(C)c3c(coc3C2=O)C(=O)O[C@@H]1COC", "note": "[g, 11-propionyl-desacetyl-Wortmannin]", "IC50 for inhibition of PI-3-kinase": 0.6}, {"smiles": "CCCC(=O)O[C@@H]1C[C@]2(C)C(=O)CC[C@H]2C2=C1[C@]1(C)c3c(coc3C2=O)C(=O)O[C@@H]1COC", "note": "[h, 11-butyryl-desacetyl-Wortmannin]", "IC50 for inhibition of PI-3-kinase": 0.4}, {"smiles": "CCCCC(=O)O[C@@H]1C[C@]2(C)C(=O)CC[C@H]2C2=C1[C@]1(C)c3c(coc3C2=O)C(=O)O[C@@H]1COC", "note": "[i, 11-valeryl-desacetyl-Wortmannin]", "IC50 for inhibition of PI-3-kinase": 1.2}, {"smiles": "COC[C@H]1OC(=O)c2coc3c2[C@@]1(C)C1=C(C3=O)[C@@H]2CCC(=O)[C@@]2(C)C[C@H]1OC(=O)CC(C)C", "note": "[iA, 11-isovaleryl-desacetyl-Wortmannin]", "IC50 for inhibition of PI-3-kinase": 1.16}, {"smiles": "CCC(=O)O[C@@H]1C[C@]2(C)[C@@H](OC(C)=O)CC[C@H]2C2=C1[C@]1(C)c3c(coc3C2=O)C(=O)O[C@@H]1COC", "note": "[j, 11-propionyl-17-acetyl-desacetyl-dihydro-Wortmannin]", "IC50 for inhibition of PI-3-kinase": 56.5}, {"smiles": "COC[C@H]1OC(=O)c2coc3c2[C@@]1(C)C1=C(C3=O)[C@@H]2CCC(=O)[C@@]2(C)C[C@H]1OC(=O)CCN(C)C", "note": "[k, 11-dimethylaminopropionyl-desacetyl-Wortmannin]", "IC50 for inhibition of PI-3-kinase": 8.6}, {"smiles": "COC[C@H]1OC(=O)c2coc3c2[C@@]1(C)C1=C(C3=O)[C@@H]2CCC(=O)[C@@]2(C)C[C@H]1OC(=O)CCl", "note": "[l, 11-chloroacetyldesacetyl-Wortmannin]", "IC50 for inhibition of PI-3-kinase": 1.3}, {"smiles": "C=CC(=O)O[C@@H]1C[C@]2(C)C(=O)CC[C@H]2C2=C1[C@]1(C)c3c(coc3C2=O)C(=O)O[C@@H]1COC", "note": "[m, 11-acrylyl-desacetyl-wortmannin]", "IC50 for inhibition of PI-3-kinase": 0.95}, {"smiles": "COC[C@H]1OC(=O)c2coc3c2[C@@]1(C)C1=C(C3=O)[C@@H]2CCC(=O)[C@@]2(C)C[C@H]1OC(=O)Cc1ccccc1", "note": "[n, 11-phenylacetyl-desacetyl-Wortmannin]", "IC50 for inhibition of PI-3-kinase": 1.53}]}, {"tested_on": "laboratory animals", "assay": "not given", "conditions": "even in low dosages, pure form; cited from earlier work", "values": [{"smiles": "COC[C@H]1OC(=O)c2coc3c2[C@@]1(C)C1=C(C3=O)[C@@H]2CCC(=O)[C@@]2(C)C[C@H]1OC(C)=O", "note": "[wortmannin, Wortmannin]", "toxicity to living creatures (lethality)": "often lethal"}]}]}
